Source: US10143638B2, “Method of treating skin with ingenol mebutate” (LEO Laboratories Limited, priority 2009, dated 2018)

Tests used:
[1] = system: HAS3; assay: HAS3 gene expression by dermal fibroblasts (qPCR); format: cell-based, human
Description: (§1) A normal adult skin biopsy (6 mm) was obtained (n=1), with informed consent, from an individual attending the Oral Surgery Clinic, School of Dentistry, Wales College of Medicine, Cardiff. Following the application of a local anaesthetic, the dermal biopsy was collected and adult dermal fibroblast cultures established by single cell suspension technique, following enzymic degradation of the specimen. This technique has previously been reliably used to establish viable primary cultures of both oral and dermal fibroblasts in vitro (Cook et al, 2000; Stephens et al, 2001; 2003). Dermal fibroblasts were cultured in Fibroblast-Serum Containing Medium, containing Dulbecco's Modified Eagle's Medium (DMEM), supplemented with L-glutamine (2 mM), antibiotics (100 U/ml) penicillin G sodium, […] streptomycin sulphate and 0.25 μg/ml amphotericin B) and 10% foetal calf serum (all purchased from Invitrogen Ltd., Paisley, U.K.). Dermal fibroblast cultures were maintained at 37° C., in a 5% CO2/95% air atmosphere, with the culture medium being changed every 2-3 days. Dermal fibroblasts were used between) passage 7-17, for all experiments.
Following trypsinization, dermal fibroblasts were seeded in 24-well tissue culture plates, in PEP005-free, Fibroblast-Serum Containing Medium (1 ml), at a cell density of 2.5×10^4 cell/well. Dermal fibroblasts were maintained at 37° C., in a 5% CO2/95% air atmosphere, overnight. At this stage, the culture medium was replaced with Fibroblast-Serum Containing Medium (600 μl), containing 0 μg/ml, 0.01 μg/ml, 0.1 μg/ml, 1 μg/ml, 10 μg/ml or 100 μg/ml PEP005, +/−TGF-β1 (10 ng/ml) (three culture wells per PEP005 concentration). A control was also established, consisting of cells in Fibroblast-Serum Containing Medium, containing 1% DMSO. The dermal fibroblasts were maintained at 37° C., in a 5% CO2/95% air atmosphere, for 24 h or 72 h, prior to washing in PBS (3×1 ml) and Trizol® Reagent (250 μl) added to the cells, for 5 min at room temperature, to induce cell lysis. RNA was extracted by the phenol-chloroform method, as described above, while a cDNA library was generated via random hexamer RT, as described above. RNA (1 μg) was added to 100 µM random hexamer (1 μl), 5×RT Buffer (4 μl), 2.5 mM Deoxynucleoside Triphosphates (dNTPs, 5 μl), 2 μl DTT and Nuclease-Free Water, were added to the reaction (total volume, 20 μl). To denature the RNA, reaction tubes were placed in a GeneAmp PCR System 9700 (Applied Biosystems, Cheshire, U.K.) and heated for 5 min/95° C., prior to cooling to 4° C. Superscript (1 μl) and RNAsin® Ribonuclease Inhibitor (1 μl, Promega, Hampshire, U.K.) were added to each tube, and the tubes subjected to […] at 20° C. for 10 min, 42° C. for 1 h and 95° C. for 5 min, prior to storage at 4° C., until required. As a negative control, RT was also performed, with Nuclease-Free Water replacing the RNA sample.
qPCR was performed, as described above, with the probe and primers for HAS1, HAS2 and HAS3 (target genes) and the 18s ribosomal RNA (reference gene), designed and supplied by Applied Biosystems. PCR was performed in a final volume of 20 μl/sample, with each reaction mix consisting of cDNA (1 μl), target gene primers and probe (1 μl), Taqman® FAST Universal PCR Master Mix (10 μl, Applied Biosystems), and Nuclease-Free Water (8 μl). PCR amplification was performed, using an initial cycle of 95° C. for 1 s, followed by 40 cycles of 60° C. for 20 s. A cDNA-free control was also included. Again, the comparative CT method was used for relative quantification of gene expression. Each experiment was performed on three separate occasions.

[2] = system: dermal fibroblasts; assay: Hyaluronan pericellular coat formation by dermal fibroblasts (particle exclusion assay); format: cell-based, human
Description: as §1
Following trypsinization, dermal fibroblasts were seeded in 53 mm bacteriological grade culture dishes (VWR International Ltd., Leicestershire, U.K.), in PEP005-free, Fibroblast-Serum Containing Medium (2 ml), at a density of 7×10^4 cell/dish. Dermal fibroblasts were maintained at 37° C., in a 5% CO2/95% air atmosphere, overnight, prior to washing in PBS (2×2 ml) and maintenance in serum-free, Fibroblast-Serum Containing Medium (2 ml), containing 0 μg/ml, 0.01 μg/ml, 0.1 μg/ml, 1 μg/ml, 10 μg/ml or 100 μg/ml PEP005, +/−TGF-β1 (10 ng/ml) (three culture dishes per PEP005 concentration). A control was also established, consisting of cells in serum-free, Fibroblast-Serum Containing Medium, containing 1% DMSO. The dermal fibroblasts were maintained at 37° C., in a 5% CO2/95% air atmosphere, for 24 h or 72 h. At 24 h and 72 h, the culture dishes were treated with formalized horse blood erythrocytes (TCS Biosciences Ltd., Buckinghamshire, U.K.). The formalized horse blood erythrocytes were washed in PBS, to remove sodium azide (3×20 ml) and centrifuged at 100 g/7 min, at 4° C. The erythrocyte cell pellet obtained was re-suspended in serum-free, Fibroblast-Serum Containing Medium, to a density of 1×10^8 cells/ml. Aliquots of the erythrocyte cell suspension (500 μl) were supplemented to each culture dish and the dishes agitated, prior to maintenance at 37° C., in a 5% CO2/95% air atmosphere, for 15 min. Zones of erythrocyte exclusion were visualized by light microscopy, using a Zeiss Axiovery 135 Inverted Microscope (Carl Zeiss Ltd., Hertfordshire, U.K.), with a Hamamatsun C5985 chilled CCD camera (Hamamatsu Photonics U.K. Ltd., Hertfordshire, U.K.) and using Openlab Software 3.0.8 (Improvision Ltd., Warwickshire, U.K.). Each experiment was performed on three separate occasions.

With `C/C=C(/C)C(=O)O[C@H]1C(C)=C[C@]23C(=O)[C@@H](C=C(CO)[C@@H](O)[C@]12O)[C@H]1[C@@H](C[C@H]3C)C1(C)C` [PEP005, ingenol-3-angelate] the HAS3 expression ([1]; PEP005 0.01-100 μg/ml plus TGF-β1 (10 ng/ml), 72 h (p>0.05)) was “no significant effects”, the HAS3 expression ([1]; PEP005 0.01-100 μg/ml, absence of TGF-β1, 24 h, non-significant (p>0.05)) was “completely abolished” and the HAS3 expression ([1]; PEP005 0.1-10 μg/ml plus TGF-β1 (10 ng/ml), 24 h, down-regulation, non-significant (p>0.05)) was “barely detectable levels”. For the same compound, the HAS3 gene expression ([1]; PEP005 1-10 μg/ml, absence of TGF-β1, 72 h, non-significant (p>0.05)) was “up-regulation”, the “changes in cellular morphology” value ([2]; PEP005 0.01-10 μg/ml plus TGF-β1 (10 ng/ml), 72 h) was “consistent with the presence of myofibroblasts” and the “hyaluronan pericellular coat formation” value ([2]; PEP005 0.01-10 μg/ml plus TGF-β1 (10 ng/ml), 72 h, compared to PEP005-free controls) was “even further enhanced”. The “morphological changes in fibroblasts” value ([2]; PEP005 0.01-10 μg/ml, absence of TGF-β1, 72 h) was “consistent with the presence of myofibroblasts”, the “hyaluronan pericellular coat size” value ([2]; PEP005 0.01-10 μg/ml, absence of TGF-β1, 72 h, compared to PEP005-free controls) was “increase pericellular coat size” and the “hyaluronan pericellular coat formation” value ([2]; PEP005-treated cultures, absence of TGF-β1, 24 h) was “little pericellular coat formation”. For the same compound, the “hyaluronan pericellular coat formation” value ([2]; PEP005 plus TGF-β1 (10 ng/ml), 24 h, compared to untreated controls and to PEP005 without TGF-β1) was “major synergistic effect”.
